In PubChem BioAssay AID1963964 (Molecular Pharmacology Branch, DTP, NCI, 2024):
Values belong to the molecule of their own block, whether it stands above or below them.

Tested on: 997726-040-R-J2-PDC tumor spheroids, viability
Test: Anticancer human tumor 997726-040-R-J2-PDC patient-derived squamous cell lung carcinoma cell line growth inhibition [PI3K]
Settings: spheroids with HUVEC and MSC; for IC50: curve of first compound; for viability, T/C: stronger effect = lower value
In short: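 High-throughput combination screen: PI3K inhibitors crossed with targeted small molecules on complex spheroids of tumor cells, HUVEC and MSCs at 37 degrees C, 5% CO2. Top concentration was at or near clinical Cmax (otherwise 10 microM), with half-log decrements.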

[1] = second compound 0.00316 µM, first compound 0.0316 µM
[2] = second compound 0.00316 µM, first compound 0.1 µM
[3] = second compound 0.00316 µM, first compound 0.316 µM
[4] = second compound 0.00316 µM, first compound 1 µM
[5] = second compound 0.00316 µM, first compound 3.16 µM
[6] = second compound 0.00316 µM, first compound 10 µM
[7] = second compound 0.01 µM, first compound 0.0316 µM
[8] = second compound 0.01 µM, first compound 0.1 µM
[9] = second compound 0.01 µM, first compound 0.316 µM
[10] = second compound 0.01 µM, first compound 1 µM
[11] = second compound 0.01 µM, first compound 3.16 µM
[12] = second compound 0.01 µM, first compound 10 µM
[13] = second compound 0.0316 µM, first compound 0.0316 µM
[14] = second compound 0.0316 µM, first compound 0.1 µM
[15] = second compound 0.0316 µM, first compound 0.316 µM
[16] = second compound 0.0316 µM, first compound 1 µM
[17] = second compound 0.0316 µM, first compound 3.16 µM
[18] = second compound 0.0316 µM, first compound 10 µM
[19] = second compound 0.1 µM, first compound 0.0316 µM
[20] = second compound 0.1 µM, first compound 0.1 µM
[21] = second compound 0.1 µM, first compound 0.316 µM
[22] = second compound 0.1 µM, first compound 1 µM
[23] = second compound 0.1 µM, first compound 3.16 µM
[24] = second compound 0.1 µM, first compound 10 µM
[25] = second compound 0.316 µM, first compound 0.0316 µM
[26] = second compound 0.316 µM, first compound 0.1 µM
[27] = second compound 0.316 µM, first compound 0.316 µM
[28] = second compound 0.316 µM, first compound 1 µM
[29] = second compound 0.316 µM, first compound 3.16 µM
[30] = second compound 0.316 µM, first compound 10 µM
[31] = second compound 1 µM, first compound 0.0316 µM
[32] = second compound 1 µM, first compound 0.1 µM
[33] = second compound 1 µM, first compound 0.316 µM
[34] = second compound 1 µM, first compound 1 µM
[35] = second compound 1 µM, first compound 3.16 µM
[36] = second compound 1 µM, first compound 10 µM
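Note: spheroids exposed to compounds for seven days before readout.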

IC50 (second compound 0.00316 µM): > 10 µM | IC50 (second compound 0.01 µM): 5.11 µM | IC50 (second compound 0.0316 µM): < 0.0316 µM | IC50 (second compound 0.1 µM): < 0.0316 µM | IC50 (second compound 0.316 µM): < 0.0316 µM | IC50 (second compound 1 µM): < 0.0316 µM
SMILES: C#Cc1c(F)ccc2cc(O)cc(-c3ncc4c(N5CC6CCC(C5)N6)nc(OCC56CCCN5CC(F)C6)nc4c3F)c12 (stereo not drawn) + COc1c(OCCCN2CCOCC2)ccc2c3n(c(=NC(=O)c4cnc(N)nc4)nc12)CCN3
viability, T/C [1]: 73.6% | viability, T/C [2]: 74.5% | viability, T/C [3]: 69.3% | viability, T/C [4]: 76% | viability, T/C [5]: 72% | viability, T/C [6]: 58.5% | viability, T/C [7]: 63.7% | viability, T/C [8]: 57.6% | viability, T/C [9]: 55.5% | viability, T/C [10]: 57.2% | viability, T/C [11]: 51.3% | viability, T/C [12]: 47.1% | viability, T/C [13]: 36.1% | viability, T/C [14]: 35% | viability, T/C [15]: 30% | viability, T/C [16]: 32.6% | viability, T/C [17]: 28.7% | viability, T/C [18]: 27.7% | viability, T/C [19]: 23% | viability, T/C [20]: 21.7% | viability, T/C [21]: 20.9% | viability, T/C [22]: 22.2% | viability, T/C [23]: 20.1% | viability, T/C [24]: 17.6% | viability, T/C [25]: 4.68% | viability, T/C [26]: 5.65% | viability, T/C [27]: 4.53% | viability, T/C [28]: 4.98% | viability, T/C [29]: 4.96% | viability, T/C [30]: 3.97% | viability, T/C [31]: 1.7% | viability, T/C [32]: 1.08% | viability, T/C [33]: 1.16% | viability, T/C [34]: 0.96% | viability, T/C [35]: 0.92% | viability, T/C [36]: 0.86%

IC50 (second compound 0.00316 µM): > 10 µM | IC50 (second compound 0.01 µM): > 10 µM | IC50 (second compound 0.0316 µM): < 0.0316 µM | IC50 (second compound 0.1 µM): < 0.0316 µM | IC50 (second compound 0.316 µM): < 0.0316 µM | IC50 (second compound 1 µM): < 0.0316 µM
SMILES: C=CC(=O)N1CCN(c2nc(=O)n(-c3c(C)ccnc3C(C)C)c3nc(-c4c(O)cccc4F)c(F)cc23)C(C)C1 (stereo not drawn) + COc1c(OCCCN2CCOCC2)ccc2c3n(c(=NC(=O)c4cnc(N)nc4)nc12)CCN3
viability, T/C [1]: 71.2% | viability, T/C [2]: 72.5% | viability, T/C [3]: 85.4% | viability, T/C [4]: 77.6% | viability, T/C [5]: 92.2% | viability, T/C [6]: 96.4% | viability, T/C [7]: 53% | viability, T/C [8]: 57.5% | viability, T/C [9]: 51.2% | viability, T/C [10]: 62.9% | viability, T/C [11]: 63.1% | viability, T/C [12]: 57.1% | viability, T/C [13]: 33.9% | viability, T/C [14]: 36% | viability, T/C [15]: 34.4% | viability, T/C [16]: 40.5% | viability, T/C [17]: 43.2% | viability, T/C [18]: 34.8% | viability, T/C [19]: 28% | viability, T/C [20]: 24.4% | viability, T/C [21]: 25.1% | viability, T/C [22]: 23.3% | viability, T/C [23]: 22.9% | viability, T/C [24]: 21.8% | viability, T/C [25]: 6.57% | viability, T/C [26]: 6.07% | viability, T/C [27]: 5.29% | viability, T/C [28]: 5.93% | viability, T/C [29]: 4.93% | viability, T/C [30]: 4.59% | viability, T/C [31]: 2.71% | viability, T/C [32]: 1.42% | viability, T/C [33]: 1.53% | viability, T/C [34]: 1.33% | viability, T/C [35]: 1.27% | viability, T/C [36]: 1.57%

IC50 (second compound 0.00316 µM): > 10 µM | IC50 (second compound 0.01 µM): > 10 µM | IC50 (second compound 0.0316 µM): < 0.0316 µM | IC50 (second compound 0.1 µM): < 0.0316 µM | IC50 (second compound 0.316 µM): < 0.0316 µM | IC50 (second compound 1 µM): < 0.0316 µM
SMILES: CC(Cn1ccc(-c2ccc(C#N)c(Cl)c2)n1)NC(=O)c1cc(C(C)O)[nH]n1 (stereo not drawn) + COc1c(OCCCN2CCOCC2)ccc2c3n(c(=NC(=O)c4cnc(N)nc4)nc12)CCN3
viability, T/C [1]: 69.7% | viability, T/C [2]: 67% | viability, T/C [3]: 78.8% | viability, T/C [4]: 78.8% | viability, T/C [5]: 82.3% | viability, T/C [6]: 74% | viability, T/C [7]: 57.3% | viability, T/C [8]: 60.4% | viability, T/C [9]: 59.9% | viability, T/C [10]: 56.1% | viability, T/C [11]: 54.6% | viability, T/C [12]: 54.8% | viability, T/C [13]: 35.7% | viability, T/C [14]: 36.3% | viability, T/C [15]: 41% | viability, T/C [16]: 33.6% | viability, T/C [17]: 37.6% | viability, T/C [18]: 37.2% | viability, T/C [19]: 23% | viability, T/C [20]: 21.4% | viability, T/C [21]: 21.5% | viability, T/C [22]: 24.5% | viability, T/C [23]: 22.6% | viability, T/C [24]: 22.9% | viability, T/C [25]: 4.78% | viability, T/C [26]: 4.57% | viability, T/C [27]: 5.76% | viability, T/C [28]: 6.82% | viability, T/C [29]: 4.57% | viability, T/C [30]: 5.74% | viability, T/C [31]: 1.37% | viability, T/C [32]: 1.18% | viability, T/C [33]: 1.28% | viability, T/C [34]: 1.44% | viability, T/C [35]: 1.61% | viability, T/C [36]: 1.51%

IC50 (second compound 0.00316 µM): < 0.0316 µM | IC50 (second compound 0.01 µM): < 0.0316 µM | IC50 (second compound 0.0316 µM): < 0.0316 µM | IC50 (second compound 0.1 µM): < 0.0316 µM | IC50 (second compound 0.316 µM): < 0.0316 µM | IC50 (second compound 1 µM): < 0.0316 µM
SMILES: CC1(C)CCC(Nc2ncc(C(F)(F)F)c(-c3c[nH]c4c(P(C)(C)=O)c(C#N)ccc34)n2)CN1 (stereo not drawn) + COc1c(OCCCN2CCOCC2)ccc2c3n(c(=NC(=O)c4cnc(N)nc4)nc12)CCN3
viability, T/C [1]: 36.8% | viability, T/C [2]: 34.2% | viability, T/C [3]: 40.7% | viability, T/C [4]: 34.8% | viability, T/C [5]: 39.8% | viability, T/C [6]: 16.6% | viability, T/C [7]: 27% | viability, T/C [8]: 28.9% | viability, T/C [9]: 29.9% | viability, T/C [10]: 30.5% | viability, T/C [11]: 33.6% | viability, T/C [12]: 12.6% | viability, T/C [13]: 21.4% | viability, T/C [14]: 17.6% | viability, T/C [15]: 18.2% | viability, T/C [16]: 24.8% | viability, T/C [17]: 23.9% | viability, T/C [18]: 7.84% | viability, T/C [19]: 13.5% | viability, T/C [20]: 12.1% | viability, T/C [21]: 13.2% | viability, T/C [22]: 13.9% | viability, T/C [23]: 15% | viability, T/C [24]: 2.98% | viability, T/C [25]: 3.97% | viability, T/C [26]: 3.68% | viability, T/C [27]: 3.96% | viability, T/C [28]: 5.01% | viability, T/C [29]: 4.34% | viability, T/C [30]: 0.66% | viability, T/C [31]: 0.85% | viability, T/C [32]: 0.74% | viability, T/C [33]: 0.9% | viability, T/C [34]: 0.76% | viability, T/C [35]: 0.9% | viability, T/C [36]: 0.33%
